PMC13065080, “Discovery of a potent anti-Zika virus benzamide series targeting the viral protein NS4B” (PLOS Pathogens, 2026)
Like-named read-outs stand apart in the source and are kept apart here.

Key:
ZIKV PLCal [1] = assay: CPE-based anti-ZIKV concentration-response assay (96-well); type: cell-based, Zika virus
ZIKV-RLuc = assay: microbe, parasite or virus in culture; type: cell-based, Zika virus; details: for Fold-change of EC50, Wt: ZIKV RLuc assay, reference
ZIKV PLCal [2] = assay: Virus yield (titer) reduction assay in Huh 7.5.1 cells; type: cell-based, Zika virus; details: 1 µM
ZIKV-RLuc NS4B V241L = type: cell-based, Zika virus
ZIKV-RLuc NS4B A245T = type: cell-based, Zika virus
ZIKV-RLuc NS4B V248G = type: cell-based, Zika virus
in vitro = details: African green monkey, CC50 Vero76
miniRFP-NS4B = molecular target: T1, miniRFP-NS4B (Zika virus, UniProt A0A142I5B9); assay: Flow cytometric binding assay, miniRFP-NS4B expressing cells; type: cell-based; details: 293T cells, vs miniRFP alone, miniRFP-NS5 or NS4B-negative cells
T1 construct: 2K-miniRFPnano3-NS4B polypeptide-expressing plasmid (miniRFP-NS4B, hereafter); expressed in transfected cells; host or cells: HEK-293T
Procedure: HEK-293T cells plated in 12-well plates at 70–80% confluency were transfected with plasmid DNA (1 µg/well) using PEI (Polyethylenimine, 3 µg/well) following a protocol described elsewhere. At 24 hours post transfection, cells were harvested by trypsinization, fixed with 2% PFA, and permeabilized with […]. After blocking for one hour with Intercept Protein-Free blocking buffer (Li-Cor), cells were incubated with MWAC-4163 in PBS with 10% blocking buffer for 30 minutes. After extensive washing, cells were analyzed on an Accuri C6 flow cytometer (BD Sciences) using channel 1 for FAM (ex488 nm/em533) and channel 4 (ex640 nm/em675LP) for miniRFP.

CHIKV = assay: microbe, parasite or virus in culture; type: cell-based; details: Vero 76; read-out: EC50-CPE CHIKV
ZIKV MR766 = assay: microbe, parasite or virus in culture; type: cell-based; details: CPE-protection
ZIKV DAK-41525-MA = assay: CPE-protection assay, ZIKV DAK-41525-MA; type: cell-based, Zika virus
ZIKV Ib H30656 = assay: microbe, parasite or virus in culture; type: cell-based; details: CPE-protection
ZIKV FLR = assay: microbe, parasite or virus in culture; type: cell-based; details: CPE-protection
ZIKV PRVABC59 = assay: microbe, parasite or virus in culture; type: cell-based; details: CPE-protection
DENV Type 4 H241 = assay: microbe, parasite or virus in culture; type: cell-based; details: CPE-protection; read-out: EC50 DENV Type 4 H241
YFV 17D = assay: microbe, parasite or virus in culture; type: cell-based; details: CPE-protection
JEV SA-14 = assay: CPE-protection assay, JEV; type: cell-based, Japanese encephalitis virus
WNV NY-99 = assay: CPE-protection assay, WNV; type: cell-based, West Nile virus
ZIKV PLCal [3] = assay: CPE-based phenotypic HTS assay (1536-well); type: cell-based, Zika virus; details: n = 10, uridine supplemented
Procedure: To begin, 600 cells at 2.5 μL/ well of Vero 76 cells in MEM-E supplemented with 10% FBS and 1X Antibiotic-Antimycotic (Gibco 15240-062) were dispensed to 1536 well plate (Aurora EBB0-40000A) and incubated at 37 °C in humidified incubators with 5% CO2 for 24 hours. After that, 30 nL of each compound or vehicle (75% DMSO) were transferred using pintool and further incubated for 2 hours. […] For the negative control wells (N = 24/plate), only virus dilution media was dispensed. Positive control wells contained virus and cells (N = 24/plate). After incubation at 37 °C in humidified incubators with 5% CO2 for 72 hours, plates were incubated for 10 minutes at room temperature, followed by dispensing 5 μL/well CellTiter Glo (Promega). Luminescent signal was detected using PHERAstar FSX (BMG Labtech).
In the primary screen, compounds were tested at a single concentration in singlicate at a final nominal concentration of 6.95 μM. Raw assay data was imported into UF Scripps’ corporate database and subsequently analyzed using Symyx software. Activity of each compound was calculated on a per-plate basis using the following equation: Percent Response of compound = 100*((Test Well-Median Data Wells)/ (Median High Control - Median Data Wells)). […]

[4] = Vero 76, MOI 0.05, 3-day incubation, CellTiter-Glo, read-out: EC50-CPE ZIKV-PLCal
[5] = wild type ZIKV-RLuc, Vero 76, MOI 0.1, three days, read-out: EC50 ZIKV-RLuc
[6] = Zika virus, Fig 7, read-out: CPE EC50
[7] = Zika virus, Vero 76, 72 h, wild type ZIKV-RLuc, Vero 76, MOI 0.1, three days, read-out: EC50 ZIKV-RLuc
[8] = Zika virus, Fig 7, read-out: RLuc EC50

O=C(NC1CC2CCC1C2)c1ccc(C2CC2)cc1 (stereo not drawn) [MWAC-3990, N-((exo)-bicyclo[2.2.1]heptan-2-yl)-4-cyclopropylbenzamide]
EC50 (ZIKV PLCal [1]; [4]): 33100 ± 25500 nM
EC50 (ZIKV-RLuc; [5]): 3010 ± 1110 nM
CC50 (Vero76): 22.7 µM

CC(C)c1ccc(C(=O)NC2CC3CCC2C3)cc1 (stereo not drawn) [MWAC-3991, N-((exo)-bicyclo[2.2.1]heptan-2-yl)-4-isopropylbenzamide]
EC50 (ZIKV PLCal [1]; [4]): 2580 ± 1390 nM
EC50 (ZIKV-RLuc; [5]): 720 ± 220 nM
CC50 (Vero76): > 50 µM

CC(C)(O)c1ccc(C(=O)NC2CC3CCC2C3)cc1 (stereo not drawn) [MWAC-3995, N-((exo)-bicyclo[2.2.1]heptan-2-yl)-4-(2-hydroxypropan-2-yl)benzamide]
EC50 (ZIKV PLCal [1]; [4]): 39000 nM
EC50 (ZIKV-RLuc; [5]): 13900 nM
CC50 (Vero76): > 50 µM

CCc1ccc(C(=O)NC2CC3CCC2C3)cc1 (stereo not drawn) [MWAC-3996, N-((exo)-bicyclo[2.2.1]heptan-2-yl)-4-ethylbenzamide]
EC50 (ZIKV PLCal [1]; [4]): 27100 ± 16800 nM
EC50 (ZIKV-RLuc; [5]): 4880 ± 1360 nM
CC50 (Vero76): > 50 µM

O=C(NC1CC2CCC1C2)c1ccc(C(F)(F)F)cc1 (stereo not drawn) [MWAC-3997, N-((exo)-bicyclo[2.2.1]heptan-2-yl)-4-(trifluoromethyl)benzamide]
EC50 (ZIKV PLCal [1]; [4]): 39000 ± 15300 nM
EC50 (ZIKV-RLuc; [5]): 4060 ± 1170 nM
CC50 (Vero76): > 50 µM

COC(C)(C)c1ccc(C(=O)NC2CC3CCC2C3)cc1 (stereo not drawn) [MWAC-3998, N-((exo)-bicyclo[2.2.1]heptan-2-yl)-4-(2-methoxypropan-2-yl)benzamide]
EC50 (ZIKV PLCal [1]; [4]): 2720 ± 1240 nM
EC50 (ZIKV-RLuc; [5]): 760 ± 50 nM
CC50 (Vero76): > 50 µM

CC(C)(C)c1ccc(C(=O)NC2CCCCC2)cc1 [MWAC-4000, 4-(tert-butyl)-N-cyclohexylbenzamide]
EC50 (ZIKV PLCal [1]; [6]): 210 nM
Fold-change of EC50, Wt (ZIKV-RLuc): 1
EC50 (ZIKV-RLuc; [7]): 30 ± 3 nM
EC50 (ZIKV-RLuc; [8]): 90 nM
VYR: Virus Yield reduction (Log 10) (ZIKV PLCal [2]): -1.67 ± 0.10 Log 10
EC50 (ZIKV-RLuc NS4B V241L): 21.3 ± 4.87 µM
Fold-increase / fold-change of EC50, NS4B V241L vs wild type (ZIKV-RLuc NS4B V241L): 659.3
EC50 (ZIKV-RLuc NS4B A245T): 680 ± 90 nM
Fold-increase / fold-change of EC50, NS4B A245T vs wild type (ZIKV-RLuc NS4B A245T): 21.2
EC50 (ZIKV-RLuc NS4B V248G): 6.6 ± 0.53 µM
Fold-increase / fold-change of EC50, NS4B V248G vs wild type (ZIKV-RLuc NS4B V248G): 204.7
CC50 (in vitro): > 50 µM

CC(C)(C)c1ccc(C(=O)NC2CCCCCC2)cc1 [MWAC-4001, 4-(tert-butyl)-N-cycloheptylbenzamide]
EC50 (ZIKV PLCal [1]; [6]): 90 nM
Fold-change of EC50, Wt (ZIKV-RLuc): 1
EC50 (ZIKV-RLuc; [7]): 40 ± 6 nM
EC50 (ZIKV-RLuc; [8]): 50 nM
VYR: Virus Yield reduction (Log 10) (ZIKV PLCal [2]): -2.68 ± 0.36 Log 10
EC50 (ZIKV-RLuc NS4B V241L): 24 µM
Fold-increase / fold-change of EC50, NS4B V241L vs wild type (ZIKV-RLuc NS4B V241L): 564.2
EC50 (ZIKV-RLuc NS4B A245T): 1070 ± 160 nM
Fold-increase / fold-change of EC50, NS4B A245T vs wild type (ZIKV-RLuc NS4B A245T): 25.1
EC50 (ZIKV-RLuc NS4B V248G): 10.1 ± 0.81 µM
Fold-increase / fold-change of EC50, NS4B V248G vs wild type (ZIKV-RLuc NS4B V248G): 238.2
CC50 (in vitro): 12 µM

Cc1ccc(C(=O)NC2CC3CCC2C3)cc1 (stereo not drawn) [MWAC-4010, N-((exo)-bicyclo[2.2.1]heptan-2-yl)-4-methylbenzamide]
CC50 (Vero76): > 50 µM

COc1ccc([C@@H](C)NC(=O)c2ccc(C(C)(C)C)cc2)cc1 [MWAC-4169, (R)-4-(tert-butyl)-N-(1-(4-methoxyphenyl)ethyl)benzamide]
binding to cells expressing miniRFP-NS4B (FAM-positive frequency) (miniRFP-NS4B): significantly higher degree of binding

C#C[C@@]1(O)[C@H](O)[C@@H](CO)O[C@H]1n1ccc2c(N)ncnc21 [NITD-008, reference compound]
EC50 (ZIKV PLCal [1]; [4]): 360 ± 270 nM
EC50 (ZIKV-RLuc; [5]): 310 ± 130 nM
EC50 (CHIKV): > 50 µM
EC50 (ZIKV MR766): 1760 ± 200 nM
EC50 (ZIKV DAK-41525-MA): 890 ± 220 nM
EC50 (ZIKV Ib H30656): 1430 ± 230 nM
EC50 (ZIKV FLR): 1240 ± 90 nM
EC50 (ZIKV PRVABC59): 690 ± 110 nM
EC50 (DENV Type 4 H241): 180 ± 120 nM
EC50 (YFV 17D): 270 ± 120 nM
EC50 (JEV SA-14): 1850 ± 1100 nM
EC50 (WNV NY-99): 3000 ± 2500 nM
EC50 (ZIKV-RLuc NS4B V241L; ZIKV RLuc assay): 0.76 µM
Fold-increase / fold-change of EC50, NS4B V241L vs wild type (ZIKV-RLuc NS4B V241L; ZIKV RLuc assay): 3.44
EC50 (ZIKV-RLuc NS4B A245T; ZIKV RLuc assay): 280 nM
Fold-increase / fold-change of EC50, NS4B A245T vs wild type (ZIKV-RLuc NS4B A245T; ZIKV RLuc assay): 1.29
EC50 (ZIKV-RLuc NS4B V248G; ZIKV RLuc assay): 0.2 µM
Fold-increase / fold-change of EC50, NS4B V248G vs wild type (ZIKV-RLuc NS4B V248G; ZIKV RLuc assay): 0.93
EC50 (ZIKV PLCal [3]): 800 ± 37 nM
CC50 (Vero76): 19 ± 10.3 µM
